Literature values in US4210638A, “Antiviral composition and method of treating virus diseases” (PCR, Inc., priority 1978, dated 1980).

Columns and labels:
[1] = test system: man; conditions: extremely high concentrations; cited from earlier work
[2] = test system: uridine and thymidine phosphorylase; conditions: cited from earlier work
[3] = test system: Herpes simplex; conditions: cited from earlier work
[4] = test system: uninfected cells; conditions: cited from earlier work; for toxicity in culture: cell culture; for toxicity towards uninfected cells compared with deoxyuridine compounds: Greer et al. 1975
[5] = test system: HSV infections of the eye; conditions: cited from earlier work
[6] = test system: human encephalitis; conditions: in vivo; cited from earlier work
[7] = test system: recurrent genital Herpes; conditions: in vivo; cited from earlier work

SMILES	substrate for catabolic enzymes uridine and thymidine phosphorylase [2]	antiviral activity against Herpes simplex in cell culture [3]	toxicity in culture [4]	further results
O=C1NC(O)CCN1[C@H]1C[C@H](O)[C@@H](CO)O1 (some centres unmarked) [2'-deoxytetrahydrouridine]				toxicity in man [1]: not toxic in man at extremely high concentrations
C=CCc1cn([C@H]2C[C@H](O)[C@@H](CO)O2)c(=O)[nH]c1=O [5-allyl-2'-deoxyuridine]	substrates for the catabolic enzymes	do exhibit antiviral activity	non-toxic in culture	
CCc1cn([C@H]2C[C@H](O)[C@@H](CO)O2)c(=O)[nH]c1=O [5-ethyl-2'-deoxyuridine]	substrates for the catabolic enzymes	do exhibit antiviral activity	non-toxic in culture	
O=c1[nH]c(=O)n([C@H]2C[C@H](O)[C@@H](CO)O2)cc1F [5-fluorodeoxyuridine]				antiviral activity against HSV infections of the eye ([5]; Kaufman 1962 / Heidelberger): very little antiviral activity
CNc1cn([C@H]2C[C@H](O)[C@@H](CO)O2)c(=O)[nH]c1=O [5-methyl amino-2'-deoxyuridine]	substrates for the catabolic enzymes		non-toxic in culture	
Cc1cn([C@H]2C[C@H](O)[C@@H](CO)O2)c(=O)nc1N [5-methyl-2'-deoxycytidine]				antiviral activity against HSV infected cells compared with 5-methyl-2'-deoxyuridine ([3]; Lin and Prusoff 1977): less effective
O=c1[nH]c(=O)n([C@H]2C[C@H](O)[C@@H](CO)O2)cc1-c1ccccc1 [5-phenyl-2'-deoxyuridine]	substrates for the catabolic enzymes	do exhibit antiviral activity	non-toxic in culture	
CCCc1cn([C@H]2C[C@H](O)[C@@H](CO)O2)c(=O)[nH]c1=O [5-propyl-2'-deoxyuridine]	substrates for the catabolic enzymes	do exhibit antiviral activity	non-toxic in culture	
N#CSc1cn([C@H]2C[C@H](O)[C@@H](CO)O2)c(=O)[nH]c1=O [5-thiocyanato-2'-deoxyuridine]	substrates for the catabolic enzymes	do exhibit antiviral activity	non-toxic in culture	
Nc1ncnc2c1ncn2[C@@H]1O[C@H](CO)[C@@H](O)[C@@H]1O [Adenine arabinoside]				incidence of death due to human encephalitis [6]: decrease the incidence of death; effect against recurrent genital Herpes [7]: neither effective against recurrent genital Herpes
Nc1nc(=O)n([C@H]2C[C@H](O)[C@@H](CO)O2)cc1Br [BrdC, 5-bromo-2'-deoxycytidine]				toxicity towards uninfected cells compared with deoxyuridine compounds [4]: substantially less toxic towards uninfected cells
Nc1nc(=O)n([C@H]2C[C@H](O)[C@@H](CO)O2)cc1I [IdC, 5-iodo-2'-deoxycytidine]				treatment of Herpes Keratitis in humans compared with IdU ([5]; humans, Kurimoto et al. 1969): more effective; toxicity towards uninfected cells compared with deoxyuridine compounds [4]: substantially less toxic towards uninfected cells
Nc1ncnc2c1ncn2[C@@H]1O[C@H](COP(=O)(O)O)[C@@H](O)[C@@H]1O [ara-AMP]				effect against recurrent genital Herpes [7]: neither effective against recurrent genital Herpes
